ChEMBL document CHEMBL2029241, “Synthesis, characterization and in vitro anti-tumor activities of matrine derivatives” (Bioorg Med Chem Lett, 2012)
Converted amounts (≈) assume the structure as drawn.

How the values were obtained:
Format in all cases: functional, cell-based
[1] = tested on: B16-F10; experiment: Cytotoxicity against mouse B16F10 cells after 48 hrs by MTT assay
[2] = Cytotoxicity against human TW03 cells after 48 hrs by MTT assay
[3] = tested on: A549; experiment: Cytotoxicity against human A549 cells after 48 hrs by MTT assay
[4] = Cytotoxicity against human HEP7402 cells after 48 hrs by MTT assay
[5] = Homo sapiens, A549, 48 h, read-out: IC50
[6] = Mus musculus, B16-F10, 48 h, read-out: IC50
[7] = Homo sapiens, TW03, 48 h, read-out: IC50
[8] = Homo sapiens, 48 h, read-out: IC50

Row | SMILES | IC50 ([1]; b16-f10) | IC50 ([2]; tw03) | IC50 ([3]; a549) | IC50 [4] | IC50 [3, 5] | IC50 [1, 6] | IC50 [2, 7] | IC50 [4, 8]
1 | O=C(O)CCCC1NCC2CCCN3CCCC1C23 (stereo not drawn) | Not Active | Not Active | Not Active | Not Active | – | – | – | –
2 | COC(=O)CCCC1NCC2CCCN3CCCC1C23 (stereo not drawn) | Not Active | Not Active | – | Not Active | 31.4 µg/mL (≈ 112 µM) | – | – | –
3 | CCOC(=O)CCCC1NCC2CCCN3CCCC1C23 (stereo not drawn) | Not Active | Not Active | – | Not Active | 32.3 µg/mL (≈ 110 µM) | – | – | –
4 | NC(=O)CCCC1NCC2CCCN3CCCC1C23 (stereo not drawn) | – | – | – | – | 18.6 µg/mL (≈ 70.1 µM) | 12.9 µg/mL (≈ 48.6 µM) | 21.7 µg/mL (≈ 81.8 µM) | 11.4 µg/mL (≈ 43 µM)
5 | C1CCN2C[C@@H]3CCCN4CCC[C@@H]([C@H]34)[C@H]2C1 | Not Active | Not Active | Not Active | Not Active | – | – | – | –
6 | O=C1/C(=C/c2ccccc2)CC[C@@H]2[C@H]3CCCN4CCC[C@@H](CN12)[C@@H]34 | – | – | – | – | 4.6 µg/mL (≈ 13.7 µM) | 5.7 µg/mL (≈ 16.9 µM) | 2.4 µg/mL (≈ 7.13 µM) | 10 µg/mL (≈ 29.7 µM)
7 | O=C1/C(=C/c2ccc([N+](=O)[O-])cc2)CC[C@@H]2[C@H]3CCCN4CCC[C@@H](CN12)[C@@H]34 | – | – | – | – | 6.2 µg/mL (≈ 16.3 µM) | 2.8 µg/mL (≈ 7.34 µM) | 3.7 µg/mL (≈ 9.7 µM) | 8.7 µg/mL (≈ 22.8 µM)
8 | O=C1/C(=C/c2cccc([N+](=O)[O-])c2)CC[C@@H]2[C@H]3CCCN4CCC[C@@H](CN12)[C@@H]34 | – | – | – | – | 7.6 µg/mL (≈ 19.9 µM) | 8.5 µg/mL (≈ 22.3 µM) | 2.4 µg/mL (≈ 6.29 µM) | 5.3 µg/mL (≈ 13.9 µM)
9 | O=C1/C(=C/c2ccc(F)cc2)CC[C@@H]2[C@H]3CCCN4CCC[C@@H](CN12)[C@@H]34 | – | – | – | – | 3 µg/mL (≈ 8.46 µM) | 2.5 µg/mL (≈ 7.05 µM) | 1.9 µg/mL (≈ 5.36 µM) | 1.8 µg/mL (≈ 5.08 µM)
10 | O=C1/C(=C/c2ccc(Cl)cc2)CC[C@@H]2[C@H]3CCCN4CCC[C@@H](CN12)[C@@H]34 | – | – | – | – | 2.6 µg/mL (≈ 7.01 µM) | 3.9 µg/mL (≈ 10.5 µM) | 2.8 µg/mL (≈ 7.55 µM) | 1.6 µg/mL (≈ 4.31 µM)
11 | O=C1/C(=C/c2ccc(Br)cc2)CC[C@@H]2[C@H]3CCCN4CCC[C@@H](CN12)[C@@H]34 | – | – | – | – | 1.9 µg/mL (≈ 4.57 µM) | 2.6 µg/mL (≈ 6.26 µM) | 3.2 µg/mL (≈ 7.7 µM) | 0.7 µg/mL (≈ 1.69 µM)
12 | O=C1/C(=C/c2cccc(F)c2)CC[C@@H]2[C@H]3CCCN4CCC[C@@H](CN12)[C@@H]34 | – | – | – | – | 3.4 µg/mL (≈ 9.59 µM) | 2.7 µg/mL (≈ 7.62 µM) | 2.2 µg/mL (≈ 6.21 µM) | 1.5 µg/mL (≈ 4.23 µM)
13 | O=C1/C(=C/c2ccc(Cl)c(Cl)c2)CC[C@@H]2[C@H]3CCCN4CCC[C@@H](CN12)[C@@H]34 | – | – | – | – | 4.7 µg/mL (≈ 11.6 µM) | 6.5 µg/mL (≈ 16 µM) | 6.3 µg/mL (≈ 15.5 µM) | 11.3 µg/mL (≈ 27.9 µM)
14 | COc1ccc(/C=C2\CC[C@@H]3[C@H]4CCCN5CCC[C@@H](CN3C2=O)[C@@H]45)cc1 | – | – | – | – | 0.6 µg/mL (≈ 1.64 µM) | 0.8 µg/mL (≈ 2.18 µM) | 1.2 µg/mL (≈ 3.27 µM) | 0.5 µg/mL (≈ 1.36 µM)
15 | COc1cccc(/C=C2\CC[C@@H]3[C@H]4CCCN5CCC[C@@H](CN3C2=O)[C@@H]45)c1 | – | – | – | – | 2.3 µg/mL (≈ 6.28 µM) | 8.7 µg/mL (≈ 23.7 µM) | 6.4 µg/mL (≈ 17.5 µM) | 3.4 µg/mL (≈ 9.28 µM)
16 | COc1cc(/C=C2\CC[C@@H]3[C@H]4CCCN5CCC[C@@H](CN3C2=O)[C@@H]45)cc(OC)c1OC | – | – | – | – | 3.8 µg/mL (≈ 8.91 µM) | 9.8 µg/mL (≈ 23 µM) | 5.5 µg/mL (≈ 12.9 µM) | 7.8 µg/mL (≈ 18.3 µM)
17 | O=C1/C(=C/c2ccncc2)CC[C@@H]2[C@H]3CCCN4CCC[C@@H](CN12)[C@@H]34 | – | – | – | – | 5.7 µg/mL (≈ 16.9 µM) | 6.2 µg/mL (≈ 18.4 µM) | 4.4 µg/mL (≈ 13 µM) | 8.6 µg/mL (≈ 25.5 µM)
18 | O=C(c1ccccc1)C1CC[C@@H]2[C@H]3CCCN4CCC[C@@H](CN2C1=O)[C@@H]34 (stereo partly drawn) | – | – | – | – | 3.6 µg/mL (≈ 10.2 µM) | 10.6 µg/mL (≈ 30.1 µM) | 2.4 µg/mL (≈ 6.81 µM) | 4.3 µg/mL (≈ 12.2 µM)
19 | O=C(c1ccco1)C1CC[C@@H]2[C@H]3CCCN4CCC[C@@H](CN2C1=O)[C@@H]34 (stereo partly drawn) | – | – | – | – | 6.6 µg/mL (≈ 19.3 µM) | 12.9 µg/mL (≈ 37.7 µM) | 4.9 µg/mL (≈ 14.3 µM) | 11.8 µg/mL (≈ 34.5 µM)
20 | O=C(c1cccs1)C1CC[C@@H]2[C@H]3CCCN4CCC[C@@H](CN2C1=O)[C@@H]34 (stereo partly drawn) | – | – | – | – | 2.3 µg/mL (≈ 6.42 µM) | 4.5 µg/mL (≈ 12.6 µM) | 8.1 µg/mL (≈ 22.6 µM) | 7.5 µg/mL (≈ 20.9 µM)
21 | COc1cc2c(c(OC)c1OC)-c1ccc(OC)c(=O)cc1[C@@H](NC(C)=O)CC2 [COLCHICINE] | – | – | – | – | 0.2 µg/mL (≈ 0.501 µM) | 0.8 µg/mL (≈ 2 µM) | 1.3 µg/mL (≈ 3.25 µM) | 0.4 µg/mL (≈ 1 µM)
22 | O=C1CCC[C@@H]2[C@H]3CCCN4CCC[C@@H](CN12)[C@@H]34 [MATRINE] | – | – | – | – | 9.7 µg/mL (≈ 39.1 µM) | 17 µg/mL (≈ 68.4 µM) | 16.3 µg/mL (≈ 65.6 µM) | 15.3 µg/mL (≈ 61.6 µM)
